Reference: patent US20260014129A1, “MITOCHONDRIAL PYRUVATE METABOLISM INHIBITORS FOR TREATING CHRONIC MYELOID LEUKEMIA” (The University Court of the University of Glasgow, priority 2022, published 2026)

Test system: CML CD34+ cells
Experiment: RNA-seq differential gene expression and GSEA of imatinib-treated CML CD34+ cells
Assay type: cell-based, human
Conditions: imatinib 2 μM, 48 hours
Experimental: RNA was extracted from 200,000 CML CD34+ cells using an RNA easy mini kit (Qiagen) according to the manufacturer's instructions.
Libraries were prepared using the Illumina TruSeq Stranded mRNA LT Kit (Illumina) and run on the Illumina Next Seq 500 using the High Output 75 cycles kit (2×36 cycles, paired end reads, single index; Illumina). FastQ files were generated using Illumina's bcl2fastq (v. 2.20.0.422).
QC, alignment, and parsing of files into count matrices was performed in command line, with subsequent differential gene expression (DGE) analysis performed in R (1.2.1335). Adapter trimming was performed using Scythe (version 0.981), and Sickle (version 0.940), was used to trim bases with quality scores of less than 20. Prior to and after this pre-processing fastqc (version 0.11.2) was run to ascertain sequence quality, alongside the efficacy of the pre-processing steps. Trimmed reads were indexed and aligned using Hisat2 (version 2.1.0). Hisat2 indexes (GRCh38 genome_tran) were obtained from the John Hopkins Center for Computational Biology, 2020. Samtools (version 0.1.19044428cd) view was used to convert the resulting .sam to .bam files, whilst samtools sort was used to sort the .bam files. Assembly was achieved through the use of stringtie (John Hopkins Center for Computational Biology, 2020), with output .gtf files converted to count matrices using the python script prepDE.py (stringtie version 1.3.3b.Linux_x86_64). Reads were assembled using an annotated reference human genome (GRCh38.p13), obtained from GENCODE (GENECODE, 2020). DESeq2 (version 1.26.0) was used to generate results sets from the gene and transcript count matrices. G genes with read counts too low to allow for the calculation of p and adjusted p-values (padj: Benjamini-Hochberg) were removed from the data sets leaving gene and transcript counts of sizes 16,069 and 45,218 respectively.
GSEA (version 4.1) was conducted on pre-ranked lists (ranked by pi score calculated by multiplying LOG fold change by −LOG (corrected p-value)).

Structure (SMILES): Cc1ccc(NC(=O)c2ccc(CN3CCN(C)CC3)cc2)cc1Nc1nccc(-c2cccnc2)n1 [imatinib]
- most downregulated pathways in GSEA (Hallmark gene sets): oxidative phosphorylation, glycolysis, and fatty acid oxidation
- PC transcript level (paired transcriptomic data): no change
- PDH transcript level (paired transcriptomic data): downregulation
